In this assay the target is T1, TRPC4 (Mus musculus, UniProt Q9QUQ5).
T1 construct: native channel in murine sigmoid colonic myocytes
T1 sequence (Q9QUQ5 1-974): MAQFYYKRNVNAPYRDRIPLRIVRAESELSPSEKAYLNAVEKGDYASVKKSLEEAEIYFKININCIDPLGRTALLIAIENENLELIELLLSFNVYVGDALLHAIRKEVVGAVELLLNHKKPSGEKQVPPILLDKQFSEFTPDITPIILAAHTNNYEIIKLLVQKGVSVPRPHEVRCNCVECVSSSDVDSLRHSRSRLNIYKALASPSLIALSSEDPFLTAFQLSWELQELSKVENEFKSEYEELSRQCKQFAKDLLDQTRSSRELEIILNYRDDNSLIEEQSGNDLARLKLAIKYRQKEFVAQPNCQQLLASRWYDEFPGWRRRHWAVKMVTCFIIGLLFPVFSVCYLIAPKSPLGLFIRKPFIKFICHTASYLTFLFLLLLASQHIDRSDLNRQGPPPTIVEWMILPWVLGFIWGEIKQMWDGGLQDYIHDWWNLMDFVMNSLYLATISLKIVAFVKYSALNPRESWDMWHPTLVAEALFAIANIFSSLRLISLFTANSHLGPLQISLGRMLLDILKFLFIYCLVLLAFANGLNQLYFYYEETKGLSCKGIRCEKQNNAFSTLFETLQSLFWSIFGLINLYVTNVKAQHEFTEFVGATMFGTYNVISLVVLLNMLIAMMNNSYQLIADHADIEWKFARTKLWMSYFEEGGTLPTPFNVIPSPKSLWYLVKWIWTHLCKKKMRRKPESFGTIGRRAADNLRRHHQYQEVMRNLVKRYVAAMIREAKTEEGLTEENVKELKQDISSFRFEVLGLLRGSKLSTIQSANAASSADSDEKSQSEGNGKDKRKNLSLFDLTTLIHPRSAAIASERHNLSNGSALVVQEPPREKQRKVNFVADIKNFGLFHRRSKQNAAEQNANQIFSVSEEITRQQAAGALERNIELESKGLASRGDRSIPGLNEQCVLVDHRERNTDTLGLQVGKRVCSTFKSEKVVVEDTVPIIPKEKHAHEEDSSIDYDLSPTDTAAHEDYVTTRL
Put plainly: whole-cell patch clamp of CCh-evoked mIcat in murine colonic myocytes, […] Pico145; current absent in TRPC4-deficient mice. It is filed as cell-based. A general note: The patch-clamp technique gives a direct electrical read-out from membranes.

The structures appear in SMILES notation.

Take `Cn1c(=O)n(CCCO)c(=O)c2c1nc(Oc1cccc(OC(F)(F)F)c1)n2Cc1ccc(Cl)cc1` [Pico145]: the “whole-cell patch clamp of CCh-evoked mIcat in murine colonic myocytes, 100 nM Pi” value was “The selective and potent antagonist of TRPC4, Pico145, completely blocked the CCh‐evoked current”.
